Experimental data as given in PMC10815238, “New N-Terminal Fatty-Acid-Modified Melittin Analogs with Potent Biological Activity” (International Journal of Molecular Sciences, 2024).

How the values were obtained:
E. coli ATCC 25922 = test: Salt sensitivity (MIC in the presence of physiological salts); format: cell-based, Escherichia coli; parameters: key to MIC, NaCl / MIC, KCl / MIC, MgCl2: MIC in μg/mL (two-fold dilutions 256 to 0.25 μg/mL); settings: for MIC, MgCl2: 1 mM MgCl2, unit not given in Table 4; for MIC, FeCl3: 4 mM FeCl3, unit not given in Table 4; for MIC, KCl: 4.5 mM KCl; for MIC, KCl / MIC, NaCl: unit not given in Table 4; for MIC, NaCl: 150 mM NaCl; for MIC, Control: no added salt, unit not given in Table 4 (Table 3 MIC in μg/mL)
Description: (§1) MIC was determined using the broth microdilution method with minor modification. In brief, bacteria (S. aureus ATCC 43300, E. faecalis ATCC 29212, E. coli ATCC 25922, P. aeruginosa ATCC 27853, L. monocytogenes CVCC 3764, B. cereus CVCC 4101, S. Castellani CGMCC 1.1869, and the multidrug-resistant E. coli strain) were cultured in nutrient broth (NB) medium (Macklin, Shanghai, China) to the logarithmic phase and diluted to 1 × 10^6 colony forming units (CFUs)/mL. The MDLs were dissolved to a final concentration of 256~0.25 μg/mL in NB medium using two-fold dilutions. A total of 50 μL of different concentrations of the MDL solutions and an equal volume of bacterial suspension were added to a 96-well plate, which was then incubated at 37 °C for 18 h. The minimum concentrations of the MDLs with no visible growth of bacteria were defined as the corresponding MICs. Media containing bacteria without the MDLs were set as the negative control. Each measurement was performed independently three times.
(§2) This was carried out in triplicate and tested at least twice.

[1] = Hydrophobicity assay (RP-HPLC retention time); format: physicochemical; settings: chromatographic, ChromCore120 C18 column 4.6 x 250 mm 5 μm; 0.1 mg/mL in deionized water; A 0.1% TFA in water, B 0.1% TFA in acetonitrile; 5% B to 90% B over 30 min; 1 mL/min; UV 220 nm; three independent experiments
Excerpt: The hydrophobicity, amphipathicity, and positive charge distribution of lipopeptides are crucial for their antimicrobial activities. Among these, hydrophobicity has been deemed essential for promoting a hydrophobic interaction with the lipid bilayer, leading to membrane disruption, cytoplasm leakage, and eventual cell death. Lipopeptides with different peptide sequences and chain lengths usually show different hydrophobicities, generating different RTs in the RP-HPLC analysis. The more hydrophobic the lipopeptide, the longer the RT on the column.
Each MDL was dissolved and diluted to 0.1 mg/mL in deionized water (obtained in-house) and then subjected to RP-HPLC on a ChromCore120 C18 column (4.6 × 250 mm, 5 μm) (NanoChrom, Suzhou, China) using 0.1% trifluoroacetic acid (TFA) (Macklin, Shanghai, China) in water as solvent A and 0.1% TFA in acetonitrile (Merck, Darmstadt, Germany) as solvent B. The elution gradient was as follows: 5% B to 90% B over 30 min, 90% B maintained for 2 min, and 90% B to 5% B over 1 min. The flow rate was 1 mL/min and measurements were taken at 220 nm. The retention time was recorded for each MDL.

S. aureus ATCC 43300 = test: Salt sensitivity (MIC in the presence of physiological salts); format: cell-based, Staphylococcus aureus; parameters: key: MIC in μg/mL (two-fold dilutions 256 to 0.25 μg/mL); settings: for MIC, MgCl2: 1 mM MgCl2, unit not given in Table 4; for MIC, FeCl3: 4 mM FeCl3, unit not given in Table 4; for MIC, KCl: 4.5 mM KCl; for MIC, KCl / MIC, NaCl: unit not given in Table 4; for MIC, NaCl: 150 mM NaCl; for MIC, Control: no added salt, unit not given in Table 4 (Table 3 MIC in μg/mL)
Description: as §1, §2

[2] = CD measurements of secondary structure; format: physicochemical; settings: 0.5 mg/mL, 25 °C
Description: The CD spectra of the MDLs were measured at 25 °C on a Chirascan spectrometer (Applied Photophysics, Surrey, UK) using a quartz cell with a 1.0 mm path length, recording from 180 to 260 nm. A scanning speed of 50 nm/min was used and the bandwidth was 1 nm. The optical path and slit width were 0.1 cm and 0.1 nm, respectively. […], 50% TFE (Macklin, Shanghai, China) was used to mimic the hydrophobic condition of the microbial membrane, and 25 mM SDS (Macklin, Shanghai, China) micelles were used to mimic the negatively charged prokaryotic membrane. The observed ellipticity was converted to molar ellipticity using the following equation: θ=θobs(MRW/10×c×l) where [θ] is the molar ellipticity (deg·cm^2·dmol^−1), θobs is the observed ellipticity corrected for the buffer at a given wavelength (mdeg), MRW is the mean residual molecular weight (molecular weight/number of amino acids), c is the peptide concentration (mg/mL), and l is the path length (cm). Assuming lipopeptides were a two-state model, the percentage in the α-helix structure of the MDLs was calculated using the following equation: α-helical content=−([θ]222 +2000)/30,000×100%

Row | SMILES | MIC, MgCl2 (E. coli ATCC 25922) | MIC, FeCl3 (E. coli ATCC 25922) | MIC, KCl (E. coli ATCC 25922) | MIC, NaCl (E. coli ATCC 25922) | RT, Min (RP-HPLC retention time, measure of hydrophobicity) [1] [min] | MIC, MgCl2 (S. aureus ATCC 43300) | MIC, FeCl3 (S. aureus ATCC 43300) | MIC, KCl (S. aureus ATCC 43300) | MIC, NaCl (S. aureus ATCC 43300) | MIC, Control (S. aureus ATCC 43300) | α-Helix, % ([2]; 25 mM SDS) [%] | β-Fold, % ([2]; 25 mM SDS) [%] | α-Helix, % ([2]; 50% TFE) [%] | β-Fold, % ([2]; 50% TFE) [%] | α-Helix, % ([2]; PBS Buffer) [%] | β-Fold, % ([2]; PBS Buffer) [%] | MIC, Control (E. coli ATCC 25922)
1 | CCCCCCCCCCCC(=O)NCC(=O)N[C@H](C(=O)NCC(=O)N[C@@H](C)C(=O)N[C@H](C(=O)N[C@@H](CC(C)C)C(=O)N[C@@H](CCCCN)C(=O)N[C@H](C(=O)N[C@@H](CC(C)C)C(=O)N[C@H](C(=O)N[C@H](C(=O)NCC(=O)N[C@@H](CC(C)C)C(=O)N1CCC[C@H]1C(=O)N[C@@H](C)C(=O)N[C@@H](CC(C)C)C(=O)N[C@H](C(=O)N[C@@H](CO)C(=O)N[C@@H](Cc1c[nH]c2ccccc12)C(=O)N[C@H](C(=O)N[C@@H](CCCCN)C(=O)N[C@@H](CCCNC(=N)N)C(=O)N[C@@H](CCCCN)C(=O)N[C@@H](CCCNC(=N)N)C(=O)N[C@@H](CCC(N)=O)C(=O)N[C@@H](CCC(N)=O)C(N)=O)[C@@H](C)CC)[C@@H](C)CC)[C@@H](C)O)[C@@H](C)O)C(C)C)C(C)C)[C@@H](C)CC [Peptide C12-Mel] | 128 | 128 | 32 | 32 | 23.344 ± 0.004 | 64 | 64 | 32 | 16 | 8 | 15.9 | 29.5 | 19 | 21.5 | 11.5 | 31.3 | 
2 | CCCCCCCCCCCCCC(=O)NCC(=O)N[C@H](C(=O)NCC(=O)N[C@@H](C)C(=O)N[C@H](C(=O)N[C@@H](CC(C)C)C(=O)N[C@@H](CCCCN)C(=O)N[C@H](C(=O)N[C@@H](CC(C)C)C(=O)N[C@H](C(=O)N[C@H](C(=O)NCC(=O)N[C@@H](CC(C)C)C(=O)N1CCC[C@H]1C(=O)N[C@@H](C)C(=O)N[C@@H](CC(C)C)C(=O)N[C@H](C(=O)N[C@@H](CO)C(=O)N[C@@H](Cc1c[nH]c2ccccc12)C(=O)N[C@H](C(=O)N[C@@H](CCCCN)C(=O)N[C@@H](CCCNC(=N)N)C(=O)N[C@@H](CCCCN)C(=O)N[C@@H](CCCNC(=N)N)C(=O)N[C@@H](CCC(N)=O)C(=O)N[C@@H](CCC(N)=O)C(N)=O)[C@@H](C)CC)[C@@H](C)CC)[C@@H](C)O)[C@@H](C)O)C(C)C)C(C)C)[C@@H](C)CC [Peptide C14-Mel] | 256 | 256 | 64 | 128 | 25.621 ± 0.002 | 256 | 256 | 64 | 64 | 32 | 15.5 | 31.7 | 16 | 25.2 | 12 | 31 | 32
3 | CCCCCCCCCC(=O)NCC(=O)N[C@H](C(=O)NCC(=O)N[C@@H](C)C(=O)N[C@H](C(=O)N[C@@H](CC(C)C)C(=O)N[C@@H](CCCCN)C(=O)N[C@H](C(=O)N[C@@H](CC(C)C)C(=O)N[C@H](C(=O)N[C@H](C(=O)NCC(=O)N[C@@H](CC(C)C)C(=O)N1CCC[C@H]1C(=O)N[C@@H](C)C(=O)N[C@@H](CC(C)C)C(=O)N[C@H](C(=O)N[C@@H](CO)C(=O)N[C@@H](Cc1c[nH]c2ccccc12)C(=O)N[C@H](C(=O)N[C@@H](CCCCN)C(=O)N[C@@H](CCCNC(=N)N)C(=O)N[C@@H](CCCCN)C(=O)N[C@@H](CCCNC(=N)N)C(=O)N[C@@H](CCC(N)=O)C(=O)N[C@@H](CCC(N)=O)C(N)=O)[C@@H](C)CC)[C@@H](C)CC)[C@@H](C)O)[C@@H](C)O)C(C)C)C(C)C)[C@@H](C)CC [Peptide C10-Mel] | 32 | 32 | 16 | 8 | 20.541 ± 0.029 | 32 | 32 | 8 | 2 | 2 | 17.1 | 28.8 | 18.4 | 22.1 | 7.5 | 41.1 | 8
4 | CCCCCCCC(=O)NCC(=O)N[C@H](C(=O)NCC(=O)N[C@@H](C)C(=O)N[C@H](C(=O)N[C@@H](CC(C)C)C(=O)N[C@@H](CCCCN)C(=O)N[C@H](C(=O)N[C@@H](CC(C)C)C(=O)N[C@H](C(=O)N[C@H](C(=O)NCC(=O)N[C@@H](CC(C)C)C(=O)N1CCC[C@H]1C(=O)N[C@@H](C)C(=O)N[C@@H](CC(C)C)C(=O)N[C@H](C(=O)N[C@@H](CO)C(=O)N[C@@H](Cc1c[nH]c2ccccc12)C(=O)N[C@H](C(=O)N[C@@H](CCCCN)C(=O)N[C@@H](CCCNC(=N)N)C(=O)N[C@@H](CCCCN)C(=O)N[C@@H](CCCNC(=N)N)C(=O)N[C@@H](CCC(N)=O)C(=O)N[C@@H](CCC(N)=O)C(N)=O)[C@@H](C)CC)[C@@H](C)CC)[C@@H](C)O)[C@@H](C)O)C(C)C)C(C)C)[C@@H](C)CC [Peptide C8-Mel] | 8 | 8 | 8 | 2 | 17.845 ± 0.013 | 8 | 8 |  | 0.5 | 0.5 | 18.2 |  | 18.8 |  | 7 |  | 2
5 | CCCCCCCCCCCCCCCC(=O)NCC(=O)N[C@H](C(=O)NCC(=O)N[C@@H](C)C(=O)N[C@H](C(=O)N[C@@H](CC(C)C)C(=O)N[C@@H](CCCCN)C(=O)N[C@H](C(=O)N[C@@H](CC(C)C)C(=O)N[C@H](C(=O)N[C@H](C(=O)NCC(=O)N[C@@H](CC(C)C)C(=O)N1CCC[C@H]1C(=O)N[C@@H](C)C(=O)N[C@@H](CC(C)C)C(=O)N[C@H](C(=O)N[C@@H](CO)C(=O)N[C@@H](Cc1c[nH]c2ccccc12)C(=O)N[C@H](C(=O)N[C@@H](CCCCN)C(=O)N[C@@H](CCCNC(=N)N)C(=O)N[C@@H](CCCCN)C(=O)N[C@@H](CCCNC(=N)N)C(=O)N[C@@H](CCC(N)=O)C(=O)N[C@@H](CCC(N)=O)C(N)=O)[C@@H](C)CC)[C@@H](C)CC)[C@@H](C)O)[C@@H](C)O)C(C)C)C(C)C)[C@@H](C)CC [Peptide C16-Mel] | >256 | >256 | 256 | >256 | 26.892 ± 0.005 | >256 | >256 | 256 | 128 | 64 | 15.2 | 33 | 14.3 | 26.8 | 12.5 | 30.4 | 128
